Measurements taken from patent publication US20250144049A1, “METHODS, COMPOSITIONS, AND USES RELATED TO THE TREATMENT AND PREVENTION OF LEIGH SYNDROME” (Stealth BioTherapeutics Inc., priority 2023, published 2025).
Blank lines part the entries; values can stand above or below the molecule they belong to.

Experiments:
[1] = tested on: rotenone-inhibited Complex I; assay: Complex I-bypass assay (high-resolution respirometry, O2 consumption); format: cell-based, human
Procedure: All high-resolution respirometry experiments were conducted using the Oroboros O2k-Fluorespirometer (Oroboros, Innsbruck, Austria). The Oroboros O2k-Fluorespirometer was calibrated daily using the air calibration protocol on DatLab 7.4 (Oroboros, Innsbruck, Austria). Prior to each experiment requiring the fluorescence module, the AmpR calibration protocol from DatLab 7.4 was used to calibrate the fluorescence signal. Initial data analysis, including setting of marks, was performed using DatLab 7.4.
Complex I-bypass activity was assessed using HRR to measure O2 consumption. […] Values were exported and analyzed using GraphPad Prism 9. […]
Statistical analysis was performed using GraphPad Prism 9. […] RET Assay data were analyzed by 2-way ANOVA using a p-value of 0.05.
Using this assay, the ability of Compounds 1 to 4 and Vatiquinone to bypass rotenone-inhibited Complex I was determined. […] The ability of Compounds 1 to 4 and Vatiquinone to “bypass” Complex I and restore OXPHOS is measured by an increase in oxygen consumption rate following addition of the compound to the chamber.
In executing this assay, in each instance, fibroblasts are added to each chamber of the Oroboros Oxygraph-2K (the “O2k”). […] The addition of rotenone is expected to cause a marked reduction of OXPHOS as measured by a decreased rate of oxygen consumption. […]

[2] = tested on: Leigh syndrome (GM03672) fibroblasts; assay: RSL3 cytoprotection assay, Leigh fibroblasts; format: cell-based, human; settings: for anti-ferroptosis properties compared among test articles: RSL3, 4 hours
Procedure: (§1) Patient fibroblasts were acquired from Coriell Institute for Medical Research (Camden, NJ, USA). GM03672 is an untransformed fibroblast cell line from a Leigh syndrome patient carrying an unknown mutation. GM08402 is an untransformed fibroblast from an apparently healthy individual. Cells were cultured at 37° C. at 5% CO2 in Eagle's Minimum Essential Medium (MEM, Corning), which was supplemented with Earle's salts and non-essential amino acids, 15% qualified fetal bovine serum, and 1% penicillin/streptomycin ([…]) to yield “Complete MEM.”
(§2) To initiate the RSL3 cytoprotection experiment, Healthy (GM08402) and Leigh syndrome (GM03672) fibroblasts were resuspended in Complete MEM. Cells were seeded at 10,000 cells per well in a clear, tissue cultured-treated, 96-well plate and incubated at 37° C. overnight. Following the incubation, supernatant was manually aspirated, taking care not to disrupt cells. […]. Luminescence units were quantified by GEN5 software on a BioTek SYNERGY neo2 plate reader (LUM filter).
(§3) RSL3 is an inhibitor of the enzyme glutathione peroxidase 4 (GPX4), which decreases lipid peroxides. RSL3 inhibition of GPX4 induces ferroptosis through iron-dependent accumulation of lipid ROS. In this assay, Healthy or Leigh fibroblasts were treated for 4 hours with RSL3 to induce ferroptosis or left untreated. Endogenous ATP levels were measured as an indicator of cellular viability using a commercially available kit (CellTiter-Glo® 2.0 Cell Viability Assay (Promega)).
(§4) […]. […] Briefly, ferroptosis was induced with 1 μM RSL3 in healthy fibroblast cells and 375 nM RSL3 in fibroblasts from a patient with Leigh syndrome.
(§5) A preliminary experiment was performed to determine the effect of RSL3 injury on the fibroblasts of a healthy individual (cell line: GM08402) and the fibroblasts of a patient diagnosed with Leigh syndrome (cell line: GM03672).

[3] = tested on: Healthy (GM08402) fibroblasts; assay: RSL3 cytoprotection assay, healthy fibroblasts; format: cell-based, human
Procedure: as §1, §2, §3, §4, §5

[4] = tested on: Leigh (GM03672) fibroblasts; assay: Erastin cytoprotection assay, Leigh fibroblasts; format: cell-based, human; settings: 24 hours; for protective effect compared among test articles: 2 μM erastin, FIG. 13
Procedure: (§6) Briefly, Healthy (GM08402) or Leigh (GM03672) fibroblasts were resuspended in assay medium, seeded at 10,000 cells per well in a clear, tissue cultured-treated, 96-well plate, and incubated at 37° C. overnight. Following the incubation, supernatant was manually aspirated from wells, taking care not to disrupt cells. Fibroblasts were co-treated in a final volume of 100 μL with 2 μM erastin (Millipore Corp., Cat #), 250 μM ferric ammonium citrate (FAC), 50 µM ascorbic acid (AA), and a titration of one of each of Compounds 1 to 4 or Vatiquinone ranging from 10 to 1000 nM. Following another 24-hour incubation at 37° C., cell viability was measured using the CellTiter-Glo Luminescent Cell Viability Kit (ProMega) per Manufacturer's instructions. Luminescence units were quantified by GEN5 software on a BioTek SYNERGY neo2 plate reader (LUM filter).
(§7) Briefly, erastin, like RSL3, is known to induce ferroptosis. […] Erastin was incubated with cell fibroblasts for 24 hours to induce ferroptosis. Cells were co-treated with each of Compounds 1 to 4, or Vatiquinone as the test articles. Test articles were administered at a range of concentrations to derive a curve. Cell viability was determined using a commercially available kit that measures ATP production. […] An increase in cell viability as determined by the assay is considered to be protective against ferroptosis.

[5] = tested on: Healthy (GM08402) fibroblasts; assay: Erastin cytoprotection assay, healthy fibroblasts; format: cell-based, human; settings: 24 hours; for protective effect compared among test articles: 2 μM erastin, FIG. 12
Procedure: as §6, §7

[6] = tested on: 15-lipoxygenase (15-LO); assay: 15(S)-HETE ELISA following RSL3 treatment, Leigh fibroblasts; format: cell-based, human; settings: 700 nM RSL3, 1 μM compound, FIG. 11
Procedure: (§8) Samples for the 15(S)-HETE ELISA were generated by the RSL3 cytoprotection assay described above. Healthy or Leigh fibroblasts were resuspended in assay medium, seeded at 200,000 cells per well in a clear, tissue culture-treated, 24-well plate. Cells were incubated at 37° C. for 24 hours. Supernatant was aspirated from each well following the incubation.
(§9) Fibroblasts from both a healthy individual and a patient diagnosed with Leigh syndrome were examined (but not all compounds were examined in each cell type). Activation of ferroptosis has been implicated as a driver of epilepsy, which is commonly associated with Leigh syndrome. […] Kahn-Kirby et al. PLOS One. […] As a key regulator of ferroptosis, 15-LO serves as a rational therapeutic target in Leigh syndrome.

[7] = tested on: 15-lipoxygenase (15-LO); assay: 15(S)-HETE ELISA following erastin treatment, healthy fibroblasts; format: cell-based, human; settings: erastin + FAC + AA, FIG. 14
Procedure: (§10) Samples for the 15(S)-HETE ELISA were generated by the Erastin Assay described above. Healthy or Leigh fibroblasts were resuspended in assay medium, seeded at 200,000 cells/well in a clear, tissue culture-treated, 24-well plate, and incubated at 37° C. for 24 hours. Supernatant was aspirated from each well.
(§11) Ferroptosis was induced using erastin at 2 μM concentration. 15(S)-HETE, which is a metabolite of arachidonic acid and generated by activity of 15-LO, was measured using a commercially available ELISA kit. Data were normalized to the “No treatment” group, which represented fibroblasts that were not injured with erastin.

[8] = Pharmacokinetics of Compound 2 after single intravenous, subcutaneous or oral administration; format: in vivo; settings: rat, 1 mg/kg IV, 10 mg/kg SC, 10 mg/kg PO
Procedure: • Animals: Rat/Sprague Dawley/Male/Naive 225-250 grams were received from an approved vendor. • Animals were fasted overnight prior to dose administration. Food was returned following the 2 hour sample collection. • Body weights were recorded prior to dose administration. The volume of each dose delivered (ml/kg) was based on each individual animal's body weight. • This was a single dose, serial blood collection study with tissues collected for possible future analysis. • Doses were administered in accordance with test facility standard operating procedures. […].
b) Sample collection—Post Dosing: • Blood samples were collected via jugular vein catheter (JVC) and transferred to tubes with appropriate anticoagulant. The tubes were stored on wet ice until processed to plasma by centrifugation (3500 rpm at 5° C. for 10 minutes) within 20 minutes of collection. Sample aliquots of 100 μL were transferred into individual uniquely labeled matrix tubes containing 10 μL of 5% (v/v) formic acid aqueous solution and stored at nominal −80° C. until analyzed by LC/MS/MS. • Immediately following final serial blood collection (24 hours, JVC), animals were sacrificed and perfused with cold PBS. […]

[9] = tested on: 15-lipoxygenase (15-LO); assay: 15(S)-HETE ELISA following RSL3 treatment, healthy fibroblasts; format: cell-based, human; settings: 700 nM RSL3, 1 μM compound, FIG. 10
Procedure: as §8, §9

[10] = tested on: 15-lipoxygenase (15-LO); assay: 15(S)-HETE ELISA following erastin treatment, Leigh fibroblasts; format: cell-based, human; settings: erastin + FAC + AA, FIG. 15
Procedure: as §10, §11

[11] = pontocerebellar hypoplasia type 6, Kahn-Kirby et al.; cited from earlier work
[12] = tested in the clinic; cited from earlier work
[13] = 2 μM erastin + FAC + AA, compound 10-1000 nM

- 15-LO inhibition compared among test articles [6]: superior to Compounds 2, 3 and 4
SMILES: COC1=C(OC)C(=O)C(CCCCCCCCCC(F)(F)F)=C(C)C1=O [Compound 1]
- oxygen consumption rate after rotenone inhibition ([1]; titrated into rotenone-inhibited Leigh fibroblasts, n=6): restored oxygen consumption rate in a dose-dependent manner
- anti-ferroptosis properties compared among test articles ([2]; FIG. 9): roughly equivalent
- anti-ferroptosis properties compared among test articles ([3]; 1 μM RSL3, 4 hours, FIG. 8): roughly equivalent
- protective effect compared among test articles [4]: about equally protective
- protective effect compared among test articles [5]: about equally protective

SMILES: CC1=C(C)C(=O)C(CC[C@@](C)(O)CC/C=C(\C)CCC=C(F)F)=C(C)C1=O [Compound 2]
- 15-LO inhibition compared among test articles [7]: slightly less effective
- anti-ferroptosis properties compared among test articles ([2]; FIG. 9): superior to Compounds 1, 4 and Vatiquinone
- anti-ferroptosis properties compared among test articles ([3]; 1 μM RSL3, 4 hours, FIG. 8): superior to Compounds 1, 4 and Vatiquinone
- tolerability [8]: well tolerated
- delivery by mode of administration ([8]; preliminary): effectively administered
- protective effect compared among test articles [4]: superior in their protective effect
- inhibition of 15-lipoxygenase (15(S)-HETE in supernatant) ([9]; 24 hours): inhibited 15-lipoxygenase
- 15-lipoxygenase inhibition compared among test articles [9]: roughly equivalent protective effect
- protective effect compared among test articles [5]: superior in their protective effect
- 15-LO inhibition compared among test articles [6]: roughly equivalent protective effect
- 15-LO inhibition compared among test articles [10]: slightly less effective

SMILES: COC(=O)c1ccc([C@H]2c3[nH]c4ccccc4c3C[C@H](C(=O)OC)N2C(=O)CCl)cc1 [RSL3, (1S,3R)-Methyl 2-(2-chloroacetyl)-2,3,4,9-tetrahydro-1-[4-(methoxycarbonyl)phenyl]-1H-pyrido[3,4-b]indole-3-carboxylate, reference compound]
- concentration sufficient for 25-30% killing of cells ([2]; Leigh fibroblasts, FIG. 7): 700 nM
- concentration sufficient for 25-30% killing of cells ([3]; healthy fibroblasts, FIG. 7): 1 µM

SMILES: CC(C)=CCC/C(C)=C/CC/C(C)=C/CC[C@@](C)(O)CCC1=C(C)C(=O)C(C)=C(C)C1=O [Vatiquinone, reference compound]
- Complex I by-pass activity ([1]; concentrations from 125 nM to 8 μM): inactive
- protective effect against RSL3 induced ferroptosis (cell viability, ATP) ([2]; 375 nM RSL3, 4 hours, compound 10-1000 nM, FIG. 9): protective effect
- anti-ferroptosis properties compared among test articles ([2]; FIG. 9): roughly equivalent
- anti-ferroptosis properties compared among test articles ([3]; 1 μM RSL3, 4 hours, FIG. 8): roughly equivalent
- protective effect against RSL3 induced ferroptosis (cell viability, ATP) ([3]; 1 μM RSL3, 4 hours, compound 10-1000 nM, FIG. 8): protective effect
- protective effect against erastin induced ferroptosis (cell viability, ATP) [4, 13]: protective effect
- protective effect compared among test articles [4]: superior in its protective effect as compared with Compounds 1 and 4
- protective effect against erastin induced ferroptosis (cell viability, ATP) [5, 13]: protective effect
- protective effect compared among test articles [5]: about equally protective
- seizure frequency and morbidity [11]: decrease seizure frequency and morbidity
- clinical results in Leigh syndrome [12]: disappointing
